From patent publication US20090221829A1 (priority 2005, published 2009) come the findings set out here.

In brackets after ≈: the same amount, converted by molar mass. Structures can show the parent of a compound that is named as a salt.

As usually defined, the melting point is the temperature, or range, at which the solid turns liquid. Usually MIC stands for the lowest concentration that inhibits growth of the organism. Lower therefore signals inhibition by little substance.

For one series, the system named is various kinds of Candida. The series can be described thus: MIC (Minimal Inhibitory Concentration) data. Type of series: cell-based. Conditions: unit assumed.
Series [1] has as its system Candida albicans(KCTC 1940), Aspergillus niger (ATCC 9642) and Saccharomyces cerevisiae. The series can be described thus: Relative antifungal activity by agar dilution method (vs Miconazole).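 Further: scores 5 to 7 mean a lower fungicidal concentration than Miconazole so higher is more potent.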 The format is cell-based. From the text:
Novel compounds represented by the above chemical formula (I), and the relative activities in accordance with the agar dilution method in Sabouraud dextrose agar media, Czapek agar media and Yeast Extract-Peptone-Dextrose agar media for Candida albicans(KCTC 1940), Aspergillus niger (ATCC 9642) and Saccharomyces cerevisiae are described respectively in following Table 1.
(In general: In agar dilution, organisms are placed on agar that contains the substance at set levels.)

Setting [2] is: agar dilution method, fungicidal concentration relative to control drug Miconazole (=4).
Setting [3] is: antifungal activity relative to Miconazole, agar dilution.

Regarding `CCCCc1ccc(C2=[N+](Cc3ccccc3F)CCc3cc4c(cc32)OCO4)cc1.[Cl-]`, the melting point was 101 °C.

`CC(C)(C)c1ccc(C2=[N+](Cc3ccccc3F)CCc3cc4c(cc32)OCO4)cc1.[Cl-]`: the melting point amounted to 148 °C.

Turning to `CC(C)C1=[N+](Cc2ccccc2F)CCc2cc3c(cc21)OCO3.[Cl-]`, the melting point came to 114 °C.

`CCCCCCCC1=[N+](Cc2ccccc2F)CCc2cc3c(cc21)OCO3.[Cl-]` had a melting point of 94 °C.

On to `COc1cc2c(cc1OC)C(CCc1ccc(C(C)(C)C)cc1)=[N+](Cc1ccccc1F)CC2` (as salt: chloride) [Compound No. 124, 1-(2-(4-t-butylphenyl))ethyl-2-(2-fluorophenyl)methyl-3,4-dihydro-6,7-dimethoxyisoquinolinium chloride], for which the melting point turned out to be 103 °C.

As for `COc1ccc(C[N+]2=C(CCc3ccc(C(C)(C)C)cc3)c3cc(OC)c(OC)cc3CC2)cc1OC` (as salt: chloride) [Compound No. 125, 1-(2-(4-t-butylphenyl))ethyl-2-(3,4-dimethoxyphenyl)methyl-3,4-dihydro-6,7-dimethoxyisoquinolinium chloride], the melting point was determined as 100 °C.

Compound `COc1cc2c(cc1OC)C(CCc1ccc(C(C)(C)C)cc1)=[N+](Cc1cccc(OC)c1OCc1ccc(C(F)(F)F)cc1)CC2` (as salt: chloride) [Compound No. 132, 1-(2-(4-t-butylphenyl))ethyl-2-(2-(4-trifluoromethylbenzyloxy)-3-methoxyphenyl)methyl-3,4-dihydro-6,7-dimethoxy isoquinolinium chloride] registered a melting point of 60 °C.

As for `COc1cc2c(cc1OC)C(CCc1ccc(C(C)(C)C)cc1)=[N+](Cc1cccc(OC)c1OCc1c(F)cccc1Cl)CC2` (as salt: chloride) [Compound No. 133, 1-(2-(4-t-butylphenyl))ethyl-2-(2-(2-chloro-6-fluorobenzyloxy)-3-methoxyphenyl)methyl-3,4-dihydro-6,7-dimethoxyisoquinolinium chloride], the melting point stood at 63 °C.

On to `COc1cc2c(cc1OC)C(CCc1ccc(C(C)(C)C)cc1)=[N+](Cc1cccc(OC)c1OCc1c(F)c(F)c(C(F)(F)F)c(F)c1F)CC2` (as salt: chloride) [Compound No. 135, 1-(2-(4-t-butylphenyl))ethyl-2-(2-(2,3,5,6-tetrafluoro-4-trifluoromethylbenzyloxy)-3-methoxyphenyl)methyl-3,4-dihydro-6,7-dimethoxy isoquinolinium chloride], for which the melting point is 140 °C.

Take `COc1cc2cc[n+](Cc3cccc(OC)c3OCc3ccc(C(F)(F)F)cc3)c(CCc3ccc(C(C)(C)C)cc3)c2cc1OC` (as salt: chloride) [Compound No. 149, 1-(2-(4-t-butylphenyl))ethyl-2-(2-(4-trifluoromethylbenzyloxy)-3-methoxyphenyl)methyl-6,7-dimethoxyisoquinolinium chloride]: the melting point came to 110 °C.

Consider `C[C@@H]1[C@H](O)[C@@H](C)/C=C/C=C/C=C/C=C/C=C/C=C/C=C/[C@H](O[C@@H]2O[C@H](C)[C@@H](O)[C@H](N)[C@@H]2O)C[C@@H]2O[C@](O)(C[C@@H](O)C[C@@H](O)[C@H](O)CC[C@@H](O)C[C@@H](O)CC(=O)O[C@H]1C)C[C@H](O)[C@H]2C(=O)O` [Amphotericin B, reference compound], for which the MIC in the series with various kinds of Candida (C. albicans ATCC 11651) stood at 1.56 µg/mL (≈ 1.69 µM); with various kinds of Candida (C. albicans ATCC 28838), 3.12 µg/mL (≈ 3.38 µM); in the series on various kinds of Candida (C. albicans IFO 1385), 1.56 µg/mL (≈ 1.69 µM); with various kinds of Candida (C. albicans OY-003), 0.78 µg/mL (≈ 0.844 µM); with various kinds of Candida (C. albicans OY-019), 0.4 µg/mL (≈ 0.433 µM); in the series with various kinds of Candida (C. albicans U.K), 3.12 µg/mL (≈ 3.38 µM). Further, the MIC worked out at 1.56 µg/mL (≈ 1.69 µM) in the series on various kinds of Candida (C. albicnas ATCC 10231); 1.56 µg/mL (≈ 1.69 µM) against various kinds of Candida (C. glabrata); 1.56 µg/mL (≈ 1.69 µM) in the series on various kinds of Candida (C. glulliermondi); 0.78 µg/mL (≈ 0.844 µM) in the series on various kinds of Candida (C. krusei (KCTC7273)); 3.12 µg/mL (≈ 3.38 µM) in the series on various kinds of Candida (C. parapsilosis).

`CCCCCCCC1=[N+](Cc2ccccc2F)CCc2cc(OC)c(OC)cc21.[Cl-]` [Compound No. 11, 1-n-heptyl-2-(2-fluorophenyl)methyl-3,4-dihydro-6,7-dimethoxyisoquinolinium chloride] displayed a melting point of 112 °C. The “Relative Activity” value in series [1] (setting [2]) is recorded as 4.

`COc1cc2c(cc1OC)C(c1cc(F)cc(F)c1)=[N+](Cc1ccccc1F)CC2.[Cl-]` [Compound No. 18, 1-(3,5-difluorophenyl)-2-(2-fluorophenyl)methyl-3,4-dihydro-6,7-dimethoxyisoquinolinium chloride] had a melting point of 118 °C. In series [1] (setting [2]), the “Relative Activity” value is recorded as 6.

In turn, `COc1cc2c(cc1OC)C(c1ccc(C(C)(C)C)cc1)=[N+](Cc1ccccc1F)CC2.[Cl-]` [Compound No. 22, 1-(4-t-butylphenyl)-2-(2-fluorophenyl)methyl-3,4-dihydro-6,7-dimethoxyisoquinolinium chloride] had a melting point of 125 °C. Moreover, the “Relative Activity” value in series [1] (setting [2]) was determined as 6.

In the case of `COc1cc2c(cc1OC)C(Cc1ccc(Cl)cc1Cl)=[N+](Cc1ccccc1F)CC2.[Cl-]` [Compound No. 25, 1-(2,4-dichlorophenyl)methyl-2-(2-fluorophenyl)methyl-3,4-dihydro-6,7-dimethoxyisoquinolinium chloride], the melting point worked out at 182 °C. The “Relative Activity” value in series [1] (setting [2]) was determined as 6.

The compound `COc1cc2c(cc1OC)C(C)=[N+](Cc1ccc(F)c(F)c1)CC2.[Cl-]` [Compound No. 39, 1-methyl-2-(3,4-difluorophenyl)methyl-3,4-dihydro-6,7-dimethoxyisoquinolinium chloride] gave a melting point of 88 °C. Besides, the “Relative Activity” value in series [1] (setting [2]) is 6.

`COc1cc2c(cc1OC)C(c1ccc(C(C)(C)C)cc1)=[N+](Cc1ccc(F)c(F)c1)CC2.[Cl-]` [Compound No. 48, 1-(4-t-butylphenyl)-2-(3,4-difluorophenyl)methyl-3,4-dihydro-6,7-dimethoxyisoquinolinium chloride] gave a melting point of 97 °C. Further, the “Relative Activity” value in series [1] (setting [2]) came to 6.

Regarding `COc1cc2c(cc1OC)C(c1ccc(C(C)(C)C)cc1)=[N+](Cc1ccccc1Cl)CC2.[Cl-]` [Compound No. 55, 1-(4-t-butylphenyl)-2-(2-chlorophenyl)methyl-3,4-dihydro-6,7-dimethoxyisoquinolinium chloride], the melting point was 117 °C. Also, in series [1] (setting [2]), the “Relative Activity” value was determined as 6.

Consider `CCCCCC1=[N+](Cc2c(F)cccc2F)CCc2cc(OC)c(OC)cc21.[Cl-]` [Compound No. 57, 1-n-pentyl-2-(2,6-difluorophenyl)methyl-3,4-dihydro-6,7-dimethoxyisoquinolinium chloride], for which the melting point worked out at 196 °C. In addition, in series [1] (setting [2]), the “Relative Activity” value worked out at 6.

As for `COc1cc2c(cc1OC)C(CCc1ccc(C(C)(C)C)cc1)=[N+](Cc1cccc(OC)c1OCc1ccc(C(F)(F)F)cc1)CC2` [Compound No. 132, 1-(2-(4-t-butylphenyl))ethyl-2-(2-(4-trifluoromethylbenzyloxy)-3-methoxyphenyl)methyl-3,4-dihydro-6,7-dimethoxy isoquinolinium chloride], the MIC in the series on various kinds of Candida (C. albicans ATCC 11651) came to 3.12 µg/mL; against various kinds of Candida (C. albicans ATCC 28838), 1.56 µg/mL; against various kinds of Candida (C. albicans IFO 1385), 6.25 µg/mL; in the series on various kinds of Candida (C. albicans OY-003), 3.12 µg/mL; against various kinds of Candida (C. albicans OY-019), 3.12 µg/mL; against various kinds of Candida (C. albicans U.K) it was 1.56 µg/mL. For the same compound, the MIC in the series with various kinds of Candida (C. glabrata) worked out at 12.5 µg/mL; in the series with various kinds of Candida (C. glulliermondi), 3.12 µg/mL; in the series with various kinds of Candida (C. krusei (KCTC7273)), 1.56 µg/mL; against various kinds of Candida (C. parapsilosis), 6.5 µg/mL. The “Relative Activity” value in series [1] (setting [2]) was determined as 1.

In the case of `COc1cc2c(cc1OC)C(CCc1ccc(C(C)(C)C)cc1)=[N+](Cc1cccc(OC)c1OCc1c(F)c(F)c(C(F)(F)F)c(F)c1F)CC2` [Compound No. 135, 1-(2-(4-t-butylphenyl))ethyl-2-(2-(2,3,5,6-tetrafluoro-4-trifluoromethylbenzyloxy)-3-methoxyphenyl)methyl-3,4-dihydro-6,7-dimethoxy isoquinolinium chloride], the MIC against various kinds of Candida (C. albicans ATCC 11651) worked out at 6.25 µg/mL; in the series with various kinds of Candida (C. albicans ATCC 28838), 3.12 µg/mL; against various kinds of Candida (C. albicans IFO 1385), 6.25 µg/mL; with various kinds of Candida (C. albicans OY-003), 3.12 µg/mL; against various kinds of Candida (C. albicans OY-019), 6.25 µg/mL; against various kinds of Candida (C. albicans U.K), 6.25 µg/mL. Also, the MIC in the series on various kinds of Candida (C. glabrata) worked out at 12.5 µg/mL; in the series on various kinds of Candida (C. glulliermondi), 3.12 µg/mL; against various kinds of Candida (C. krusei (KCTC7273)), 1.56 µg/mL; against various kinds of Candida (C. parapsilosis), 12.5 µg/mL. In addition, the “Relative Activity” value in series [1] (setting [2]) is listed as 2.

As for `COc1cc2cc[n+](Cc3ccc(C(C)(C)C)cc3)cc2cc1OC.[Cl-]` [Compound No. 142, 2-(4-t-butylphenyl)methyl-6,7-dimethoxy-isoquinolinium chloride], in series [1] (setting [3]), the “Relative Activity” value amounted to 6.

For `CCCCCCCCCCCc1c2cc(OC)c(OC)cc2cc[n+]1Cc1ccc(C(C)(C)C)cc1.[Cl-]` [Compound No. 146, 1-undecyl-2-(4-t-butylphenyl)methyl-6,7-dimethoxyisoquinolinium chloride], the “Relative Activity” value in series [1] (setting [3]) stood at 2.

As to `COc1cc2cc[n+](Cc3cccc(OC)c3OCc3ccc(C(F)(F)F)cc3)c(CCc3ccc(C(C)(C)C)cc3)c2cc1OC` [Compound No. 149, 1-(2-(4-t-butylphenyl))ethyl-2-(2-(4-trifluoromethylbenzyloxy)-3-methoxyphenyl)methyl-6,7-dimethoxyisoquinolinium chloride], the MIC against various kinds of Candida (C. albicans ATCC 11651) was 0.78 µg/mL; in the series on various kinds of Candida (C. albicans ATCC 28838), 1.56 µg/mL; in the series on various kinds of Candida (C. albicans IFO 1385), 3.12 µg/mL; in the series on various kinds of Candida (C. albicans OY-003) it was 0.78 µg/mL; in the series with various kinds of Candida (C. albicans OY-019), 1.56 µg/mL; with various kinds of Candida (C. albicans U.K), 0.78 µg/mL. In addition, the MIC against various kinds of Candida (C. albicnas ATCC 10231) was 0.78 µg/mL; in the series with various kinds of Candida (C. glabrata), 6.25 µg/mL; against various kinds of Candida (C. glulliermondi) it was 1.56 µg/mL; with various kinds of Candida (C. krusei (KCTC7273)) it was 1.56 µg/mL; with various kinds of Candida (C. parapsilosis), 6.25 µg/mL. Besides, the “Relative Activity” value in series [1] (setting [3]) was found to be 1.
